Patent publication US11366116B1, “Real time autonomous surveillance of pathogens” (priority 2017, dated 2022)

System: Culex tarsalis mosquitoes
Experiment: Observation of mosquitoes feeding upon scented, spun (cotton candy) baits
Format: in vivo
Conditions: for Number of mosquitos observed feeding each scent: scented spun cotton candy bait
Description: One strategy for a solid bait that we tested was a “cotton candy” or spun sugar bait (FIG. 11). The cotton candy could be pressed into the feeding well, over and on top of a dried enzyme pellet and a ball bearing for magnetic mixing. We anticipated this would allow a large surface area for mosquitoes to feed, as well as dissolve instantly upon adding a drop of rehydration buffer. Plain cotton candy made from pure sucrose turned out to be unstable upon storage for more than a few days, and we subsequently devised a way to modify the cotton candy by melting a polymer (PEG) with the sugar prior to spinning, to stabilize it against shriveling in ambient humidity. […] Based on this experiment (Table 1), we determined that both honey and plumeria could be used as attractants for sugar-feeding Culex tarsalis mosquitoes.

## O=CCc1ccccc1 [Phenylacetaldehyde]
Day 0
  Number of mosquitos observed feeding each scent: 0
Day 1
  Number of mosquitos observed feeding each scent: 5
Day 2
  Number of mosquitos observed feeding each scent: 1
Day 3
  Number of mosquitos observed feeding each scent: 4
Day 4
  Number of mosquitos observed feeding each scent: 3
Sum of Day 0 to Day 4
  Number of mosquitos observed feeding each scent, Sum: 13
